The record followed here is patent publication US9913857B2, “Composition and methods of screening” (OPTIBIOTIX LIMITED, priority 2013, dated 2018).

Each structure is given as a SMILES string.

Assay [1] relates to Total count. The experiment in a line: Anaerobic cultures, gut bacterial groups by fluorescent in situ hybridisation: total count. Details: Total count 24: unit not given here. To be noted: for Total count 24: 24 hours, anaerobic culture, inoculum 8.84; for Total count 24 hr % change: 24 hr vs inoculum. Type of assay: cell-based. On the procedure: (§1) In these experiments, anaerobic cultures were tested to evaluate the in vitro utilisation of a novel Lactobacillus reuteri galactooligosaccharide by monitoring the populations of gut bacterial groups at 24 hours using fluorescent in situ hybridisation, and short-chain fatty acid […]. Fructooligosaccharides (FOS), melibiose and raffinose were used as reference carbohydrates.

In assay [2] the test system is Bifidobacteria. The experiment in a line: Anaerobic cultures, gut bacterial groups by fluorescent in situ hybridisation: Bifidobacteria. Type of assay: cell-based. Details: Bifidobacteria 24: unit not given here. To be noted: for Bifidobacteria 24: 24 hours, anaerobic culture, inoculum 6.85; for Bifidobacteria 24 hr % change: 24 hr vs inoculum. On the procedure: as §1

In assay [3] the test system is Bacteroides. The experiment in a line: Anaerobic cultures, gut bacterial groups by fluorescent in situ hybridisation: Bacteroides. Format: cell-based. Details: Bacteroides 24: unit not given here. Particulars: for Bacteroides 24: 24 hours, anaerobic culture, inoculum 7.98; for Bacteroides 24 hr % change: 24 hr vs inoculum. On the procedure: as §1
Assay [4] has as its system Lactobacilli. The experiment in a line: Anaerobic cultures, gut bacterial groups by fluorescent in situ hybridisation: Lactobacilli. Type of assay: cell-based. Details: Lactobacilli 24: unit not given here. Particulars: for Lactobacilli 24: 24 hours, anaerobic culture, inoculum 7.15; for Lactobacilli 24 hr % change: 24 hr vs inoculum. On the procedure:
as §1

The subject of assay [5] is Clostridia. The assay is described as follows: Anaerobic cultures, gut bacterial groups by fluorescent in situ hybridisation: Clostridia. Type of assay: cell-based. Details: Clostridia 24: unit not given here. Particulars: for Clostridia 24: 24 hours, anaerobic culture, inoculum 7.55; for Clostridia 24 hr % change: 24 hr vs inoculum. On the procedure: as §1
For assay [6], the system named is E. coli. The assay is described as follows: Anaerobic cultures, gut bacterial groups by fluorescent in situ hybridisation: E. coli. Format: cell-based. Details: E. coli 24: unit not given here. To be noted: for E. coli 24: 24 hours, anaerobic culture, inoculum 8.14; for E. coli 24 hr % change: 24 hr vs inoculum. On the procedure: as §1
In assay [7] the test system is Eubacteria. The assay is described as follows: Anaerobic cultures, gut bacterial groups by fluorescent in situ hybridisation: Eubacteria. Type of assay: cell-based. Details: Eubacteria 24: unit not given here. To be noted: for Eubacteria 24: 24 hours, anaerobic culture, inoculum 8.06; for Eubacteria 24 hr % change: 24 hr vs inoculum. On the procedure: as §1
Assay [8] concerns Lactobacilli strains. The experiment in a line: Bacterial growth curve with lactose as growth medium. Type of assay: cell-based, Lactobacillus. To be noted: around 13 hours, from approximately 6.5, L. plantarum, L. casei, L. salivarius, L. rhanmosus, L. delbrueckii. On the procedure: Bacterial growth curve determination was undertaken by sampling cultures at 0 h, 3 h, 5 h, 8 and 24 h intervals using a 100 μL of dilution series of culture in 900 μL PBS. 20 μL of each series was spread onto a jar and with a negative control and growth assessed.
Bacterial count of several of the strains was assessed by using 0.1% lactose as the growth medium.
Bacterial count of several of the strains was assessed by using 5% lactose as the growth medium. FIGS. 2A-2G show the bacterial count over time using 5% lactose as a growth medium for L. plantarum, L. casei, L. salivarius, L. delbrueckii, L. rhanmosus, L. acidophilus and L. helveticus.

With `OC[C@H]1O[C@H](OCC2O[C@@H](O)[C@H](O)[C@@H](O)[C@@H]2O)[C@H](O)[C@@H](O)[C@H]1O` (stereo partly drawn) [Melibiose, melibiose], in assay [1], the “Total count 24” value turned out to be 9.14 and the “Total count 24 hr % change” value is given as 103%. In assay [2], the “Bifidobacteria 24” value turned out to be 7.33 and the “Bifidobacteria 24 hr % change” value was 107%. Besides, in assay [3], the “Bacteroides 24” value came to 7.9 and the “Bacteroides 24 hr % change” value is 99%. Further, in assay [4], the “Lactobacilli 24” value stood at 7.43 and the “Lactobacilli 24 hr % change” value is 104%. In assay [5], the “Clostridia 24” value was found to be 7.65 and the “Clostridia 24 hr % change” value was determined as 101%. Further, in assay [6], the “E. coli 24” value came to 7.66 and the “E. coli 24 hr % change” value was found to be 94%. In addition, in assay [7], the “Eubacteria 24” value is reported as 7.84 and the “Eubacteria 24 hr % change” value was found to be 97%.

Consider `OC[C@H]1O[C@H](OC[C@H]2O[C@H](O[C@]3(CO)O[C@H](CO)[C@@H](O)[C@@H]3O)[C@H](O)[C@@H](O)[C@@H]2O)[C@H](O)[C@@H](O)[C@H]1O` [Raffinose, raffinose], for which, in assay [1], the “Total count 24” value turned out to be 9.19 and the “Total count 24 hr % change” value is 104%. Moreover, in assay [2], the “Bifidobacteria 24” value came out at 7.69 and the “Bifidobacteria 24 hr % change” value was determined as 112%. In assay [3], the “Bacteroides 24” value was determined as 8.08 and the “Bacteroides 24 hr % change” value is listed as 101%. In assay [4], the “Lactobacilli 24” value was 7.45 and the “Lactobacilli 24 hr % change” value is listed as 104%. Also, in assay [5], the “Clostridia 24” value was determined as 7.81 and the “Clostridia 24 hr % change” value came out at 103%. In addition, in assay [6], the “E. coli 24” value is given as 8.03 and the “E. coli 24 hr % change” value amounted to 99%. Further, in assay [7], the “Eubacteria 24” value is listed as 8.69 and the “Eubacteria 24 hr % change” value is 108%.

Consider `OC[C@H]1O[C@@H](O[C@H]2[C@H](O)[C@@H](O)C(O)O[C@@H]2CO)[C@H](O)[C@@H](O)[C@H]1O` (stereo partly drawn) [lactose], for which the bacterial count result in assay [8] (0.1% lactose as growth medium, L. fermentum) was “over 9.5 log 10 CFU/ml”; in assay [8] (5% lactose as growth medium, L. acidophilus, L. helveticus) it was “over 9.5 log 10 CFU/ml”.
